From patent publication US10781171B2, “Substituted pyrrolidines as G-protein coupled receptor 43 agonists” (Epics Therapeutics, priority 2009, dated 2020)

System: ob/ob mice
Assay: Oral glucose tolerance test (OGTT) in ob/ob mice
Type: in vivo, mouse
Conditions: blood glucose AUC -15 to 120 min in OGTT, 50 mg/kg bi-daily for 28 days
Description: Ob/ob or obese mice are leptin-deficient mice that eat excessively and become profoundly obese, hyperinsulinemic and hyperglycemic. It is an animal model of type II diabetes. Such model can be used for oral glucose tolerance tests (OGTTs). A total of sixteen (16) male ob/ob mice (6 weeks of age) were obtained from Harlan. Upon arrival to the animal unit, mice were housed 4 per cage in rodent cages mounted with feeders containing regular chow. The mice were put in a 12/12h light-dark cycle (light from 0600-1800 h) with controlled temperature conditions (22-24° C.). Fed blood glucose and body-weight was measured on day −2 in the morning between 08:00 AM and 09:00 AM. Animals were randomized into 2 groups according to fed glucose levels (on day −2). […]
Day 1 is the first day of dosing. […] At −15 min, blood glucose was measured (using a glucose analyzer) and animals were dosed with compounds of the invention or vehicle. At time point 0, blood glucose was measured again and glucose was administered by oral gavage (1 g/kg glucose). The blood glucose was then measured at time points 15, 30, 45, 60 and 120 minutes. […] The percentages of AUC inhibition induced by compounds of the invention were calculated as follows: % of AUC inhibition: [1-(AUC compound/AUC vehicule)]*100.

## COc1ccccc1-c1ccc(C(=O)N2[C@@H](c3ccccc3Cl)CC[C@H]2C(=O)O)cc1 [Compound 1, (2S,5R)-5-(2-chlorophenyl)-1-(2′-methoxy-[1,1′-biphenyl]-4-carbonyl)pyrrolidine-2-carboxylic acid]
  % of AUC inhibition: 40%
